Where two headings read alike, the source gives them in different places.
Key:
HCT116DoxR cells [1] = assay: Annexin V-FITC/PI apoptosis assay by flow cytometry; conditions: 48 h, complexes at IC50, Dox 6 μM, cisplatin 5 μM
Description: To evaluate the cell death mechanism involved in the cytotoxic effect of the selected complexes, a double-staining with Annexin V-FITC and PI was performed. […] The use of Annexin V conjugated with the fluorophore FITC allows the quantification of this interaction and subsequent identification of cells in apoptosis by flow cytometry. Furthermore, PI is a fluorophore that can intercalate with DNA and that can only enter the cell when the membrane is either compromised or ruptured, making it possible to identify cells undergoing late apoptosis and necrosis. Therefore, the double staining makes it possible to distinguish between viable cells (FITC^–; IP^–), those undergoing initial apoptosis (FITC^+; IP^–), those undergoing late apoptosis (FITC^+; IP^+), and those undergoing necrosis (FITC^–; IP^+).[55],[58]
Evaluation of apoptosis induction in HCT116DoxR cell line by flow cytometry The induction of apoptosis in HCT116DoxR cell line was evaluated by flow cytometry, using the
Annexin V-FITC Apoptosis Detection Kit (Thermo Fisher Scientific, Waltham, MA, USA). Cells
were seeded in 6-well plates at a cell density of 1×10^5 cells/mL and incubated for 24 h. Afterwards,
culture medium was replaced by medium with different Cu(II) complexes at their IC50 concentrations.
After 48 h of incubation, cells were washed with PBS 1x, detached from each well with TrypLETM
Express and washed again with PBS 1x. Cells were then resuspended in 1x annexin-binding buffer and
incubated at rt for 15 min with Annexin V-FITC and 100 μg/mL PI.
All samples were analysed by an Attune® Acoustic Focusing Flow Cytometer (Thermo Fischer
Scientific, Waltham, MA, USA) and the results were processed with Attune® Cytometric software

HCT116DoxR cells [2] = assay: Cellular senescence (β-galactosidase, flow cytometry); conditions: 48 h; complexes at IC50, cisplatin 5 μM, Dox 6 μM
Description: Given the ability of the Cu(II) complexes to interfere with the progression of the cell cycle, the senescence of HCT116DoxR cells was analyzed after 48 h of exposure to their IC50 concentrations. […] To study the senescence-inducing capacity of the complexes, the activity of β-galactosidase, whose increased expression is associated with senescence, was quantified by flow cytometry (Figure 16).[73]
(§1) HCT116DoxR cell line was seeded in 6-well plates in a density of 1×10^5 cells/mL and incubated for
(§2) 24 h. Afterwards, the culture medium was replaced by medium with IC50 concentrations of different
(TBHP) were used as controls. After an incubation period of 48 h, cells were washed with PBS 1x, detached with TrypLETM Express and washed again with PBS 1x.

HCT116DoxR cells [3] = assay: Cell cycle progression (PI, flow cytometry)
Description: Therefore, we have assessed the cytostatic potential of complexes 2, 3, 5, and 7, and their ability to interfere with the progression of the cell cycle using the fluorescent marker PI. Since this marker can intercalate with DNA, the measurement of the fluorescence emitted by flow cytometry makes it possible to assess the DNA content at each stage of the cell cycle (G0/G1, S, and G2/M).[67] To ensure that all the cells were in the same phase before their exposure to the complexes, a double block was carried out with thymidine, a DNA synthesis inhibitor.[67]
as §1, §2
HCT116DoxR cell line was seeded in 6-well plates in a density of 1×10^5 cells/mL, incubated for 8 h in
a humidified atmosphere at 37 °C and 5% (v/v) CO2, and later synchronized in early S-phase with a 2
mM thymidine solution (Merck, Germany) for a 16 h period. Later, medium with thymidine was
replaced by fresh media and, after 8 h a second block with thymidine was performed in the same
concentrations of Cu(II) complexes. 0.1% (v/v) DMSO was used as the vehicle control while 5 μM
After treatment, cells were incubated for 9, 12,

caspase-8 = assay: Caspase-8 activity (IETD-pNA cleavage); type: cell-based, human; conditions: HCT116DoxR, 48 h; complexes at IC50, cisplatin 5 μM
Description: In this assay, the chromogenic substrate IETD-pNA, resulting from the conjugation between the peptide IETD (Ile-Glu-Thr-Asp) and the chromophore pNA (p-nitroanilide), is cleaved by caspase-8, releasing the chromophore, which is detected by measuring absorbance at 400 nm.[48] […]
treated with ECLTM Prime Western Blotting Detection Reagents (Cytiva, United Kingdom) for 5 min and exposed to a film in a dark room. Membranes were later incubated (with agitation) twice with Stripping buffer (0.1M glycine, 20 mM magnesium acetate, 50 mM KCl, pH 2.0) during 10 and 20 min, respectively, and subsequently incubated with anti-β-actin (1:5000; Sigma, St. Louis, USA) as a control to normalize the results. Proteins were quantified by densitometry using Image J software.
The Caspase-8 activity in HCT116DoxR cells exposed to Cu(II) complexes was evaluated using the Caspase-8 Assay kit (ab39700) (Abcam, Cambridge, United Kingdom). […]
The plate was then incubated for 2 h at 37°C, after which, absorbance was read at 400 nm on a Tecan Infinite M200 microplate reader (Männedorf, Switzerland).
ΔΨm was evaluated in HCT116DoxR cell line by using the JC-1 Mitochondrial Membrane Potential Assay Kit (Abnova Corporation, Walnut, CA, USA). […]
Autophagy induction in HCT116DoxR cell line was evaluated using the Autophagy Assay Kit (ab139484) (Abcam, Cambridge, United Kingdom) according to the manufacturers’ instructions. […]

[4] = system: HCT116 (colorectal carcinoma cell line); assay: MTS cell viability assay, 2D culture, HCT116; type: cell-based, human
Description: (§3) The in vitro cytotoxic potential of Cu(II) complexes in tumor and healthy cells was assessed using the MTS assay, a colorimetric method that allows the quantification of viable cells in culture.[46]
Cell culture and maintenance
(§4) The cancer cell lines HCT116 (colorectal carcinoma) and A2780 (ovarian carcinoma) were obtained
(§5) from the American Type Culture Collection (ATCC®, Manassas, VA, USA), as well as the normal
human primary dermal fibroblasts.
(§6) Apart from the A2780 cell line, which was cultured in Roswell Park Memorial Institute (RPMI)
(§7) medium, all cells were cultured in Dulbecco’s modified Eagle medium (DMEM). Both media were
(§8) supplemented with 10% (v/v) fetal bovine serum (FBS) and 1% (v/v) of a Pen/Strep
(§9) (Penicillin/Streptomycin) solution. To maintain the resistant phenotype of the HCT116DoxR cell line,
(§10) the medium was additionally supplemented with 3.6 μM Dox4. All media and supplements were
(§11) purchased from Thermo Fischer Scientific (Waltham, MA, USA).
(§12) Cells were maintained in 25 cm2 T-flasks (T25) in a humidified atmosphere at 37 °C and 5% (v/v) CO
(§13) (SANYO CO2 Incubator, Electric Biomedical Co., Osaka, Japan).
(§14) The effect of Cu(II) complexes on cell viability was studied in HCT116, HCT116DoxR, and A2780
(§15) cancer cell lines and in normal human primary fibroblasts. Cells were seeded in a density of 0.75×105
(§16) cells/mL into 96-well plates and incubated in a humidified atmosphere at 37 °C and 5% (v/v) CO2 for
(§17) 24 h. After incubation, complexes were weighed, immediately solubilized in 100% (v/v) DMSO and
(§18) diluted for the final concentration with cell culture medium. The medium in each well was replaced by
(§19) a solution of fresh medium containing each Cu(II) complex (concentrations ranging from 0.01 μM to
(§20) as negative and positive controls, respectively.
(§21) Following a second incubation period of 48 h in the same conditions, the supernatant of each well was
(§22) replaced by a solution containing MTS reagent (3-(4,5-dimethylthiazol-2-yl)-5-(3-
(§23) carboxymethoxyphenyl)-2-(4-sulfophenyl)-2H-tetrazolium) provided by the CellTiter 96® AQueous
(§24) Non-Radioactive Cell Proliferation Assay Kit (Promega, Madison, WI, EUA) for a 30 minutes
(§25) incubation. The percentage of viable cells was indirectly determined by the spectrophotometric
(§26) quantification at 490 nm in a microplate reader, Tecan Infinite M200 (Tecan, Männedorf, Switzerland)
(§27) of formazan production, resultant from the reduction of the MTS reagent by mitochondrial
(§28) dehydrogenases. Since these enzymes are only active in viable cells, the absorbance value measured is
(§29) directly proportional to the percentage of viable cells in culture5.
(§30) By analysing the cell viability as a function of log10(concentration) using Prism 8 (GraphPad
(§31) in cell viability) of each complex in the respective cell line at 48 h. The selective index (SI) for each
(§32) complex was also determined by dividing the IC50 of human fibroblasts by the respective IC50 in each
(§33) cancer cell line (allowing us to understand how much active a complex is in tumor versus normal cell).

[5] = system: A2780 (ovarian carcinoma cell line); assay: MTS cell viability assay, 2D culture, A2780; type: cell-based, human
Description: as §3
Cell culture and maintenance
as §4, §5
human primary dermal fibroblasts.
as §6, §7, §8, §9, §10, §11, §12, §13, §14, §15, §16, §17, §18, §19, §20, §21, §22, §23, §24, §25, §26, §27, §28, §29, §30, §31, §32, §33

[6] = system: normal human primary dermal fibroblasts; set-up: method as in PMID 29688241; conditions: 48 h; previously obtained; cited from earlier work
[7] = system: HCT116DoxR (Dox-resistant colorectal carcinoma cell line); assay: MTS cell viability assay, 2D culture, HCT116DoxR; conditions: read-out: IC50 (μM) HCT116DoxR, 48 h of exposure
Description: as §3
In this regard, cell viability was performed for each of the ligands on HCT116DoxR and fibroblasts.
Cell culture and maintenance
as §4, §5
human primary dermal fibroblasts.
as §6, §7, §8, §9, §10, §11, §12, §13, §14, §15, §16, §17, §18, §19, §20, §21, §22, §23, §24, §25, §26, §27, §28, §29

[8] = system: HCT116DoxR (Dox-resistant colorectal carcinoma cell line); conditions: cited from earlier work

Row | SMILES | cells (%) early apoptosis (HCT116DoxR cells [1]) | cells (%) late apoptosis (HCT116DoxR cells [1]) | cells (%) necrosis (HCT116DoxR cells [1]) | percentage of apoptosis (early + late) (HCT116DoxR cells [1]) | induction of cellular senescence compared to DMSO control (HCT116DoxR cells [2]) | cell cycle progression after 24 h (HCT116DoxR cells [3]; 24 h, complexes at IC50, cisplatin 5 μM) | increase in caspase-8 activity compared to vehicle control (DMSO) (caspase-8) | IC50 ([4]; 48 h of exposure) | IC50 ([5]; 48 h of exposure) | IC50 [6] | IC50 [7] | cells (%) viable (HCT116DoxR cells [1]) | viability at 6 µM (HCT116DoxR cells [1]; Homo sapiens, read-out: cells (%) viable, 48 h) | cell cycle arrest in the G2/M phase (HCT116DoxR cells [3]; Dox 6 μM, 9–24 h) | IC50 ([4]; Homo sapiens, HCT-116, 48 h of exposure) | IC50 ([5]; Homo sapiens, A2780, 48 h of exposure) | IC50 [8]
1 | N.N.[Cl][Pt][Cl] [cisplatin, reference compound] | 47.5 ± 7.2% | 19.8 ± 5.9% | 0.1 ± 0.1% | 65 to 70% | induce cellular senescence | delay the cycle in the G2/M phase | 2- to 3 fold | 15.6 ± 5.3 µM | 1.9 ± 0.2 µM | – | – | – | – | – | – | – | –
2 | COc1ccc(-c2cc(-c3ccccn3)nc(-c3ccccn3)c2)c2ccccc12 [L3] | – | – | – | – | – | – | – | – | – | 0.95 ± 0.08 µM | 0.2 ± 0.02 µM | – | – | – | – | – | –
3 | COc1cccc2c1C(=O)c1c(O)c3c(c(O)c1C2=O)C[C@@](O)(C(=O)CO)C[C@@H]3O[C@H]1C[C@H](N)[C@H](O)[C@H](C)O1 [Dox, doxorubicin, reference compound] | 16.6 ± 5.5% | 13.9 ± 1.9% | 9.8 ± 4.0% | ~31% | did not induce an increase in cellular senescence | – | – | – | – | – | – | 59.8 ± 3.8% | ~60% | not verified | 0.5 ± 0.1 µM | 0.1 ± 0.04 µM | > 6 µM
